Measured values published in article PMC11707430, “Novel antibiotics against Staphylococcus aureus without detectable resistance by targeting proton motive force and FtsH” (MedComm, 2025).
Values after ≈ are worked out from the molar mass of the structure shown.

What was measured:
TA 100 = assay: Ames test; format: cell-based, Salmonella typhimurium
Experimental: (§1) Ames test. Genotoxicity of the compounds was determined by Ames Kit (IPHASE, Beijing, China) containing Salmonella typhimurium (TA97a, TA98, TA100, and TA1535) and E. coli WP2 uvrA (pKM101). Diclofenac and 2-aminofluorene were used as positive controls for TA97a and TA98. Methyl methanesulfonate and 2-aminofluorene were used as positive controls for TA100. Methyl methanesulfonate and 2-aminoanthracene were used as positive controls for WP2 uvrA (pKM101). NaN3 and 2-aminoanthracene were used as positive controls for TA1535. The bottom and top layer culture medium, and S9 mixed solution were prepared according to the manufacturer’s instructions. After incubation at 37℃ for 48h, the colonies were counted.

TA 97a = assay: Ames test; format: cell-based, Salmonella typhimurium
Experimental: as §1

TA 1535 = assay: Ames test; format: cell-based, Salmonella typhimurium
Experimental: as §1

TA 98 = assay: Ames test; format: cell-based, Salmonella typhimurium
Experimental: as §1

S. aureus = assay: MIC determination by microbroth dilution; format: cell-based, Staphylococcus aureus; settings: Staphylococcus aureus; structure-activity relationship of C218-0546 analogs (Figure S1); read-out: MIC
Experimental: Minimal inhibitory concentration (MIC) determination. The detection of MIC was performed by the microbroth dilution method with reference to the previously report by Wang et al^2. Briefly, the fresh bacterial suspension was adjusted to a McF standard equivalent of 0.5 (~1.5 × 10^8 CFU/mL) and then 100-fold diluted with MH broth. Fifty microliters of bacterial suspension with equal volume of serially diluted compounds (1-128 µg/mL) were added into a 96-well cell plate (Corning Costar, the United States) and incubated at 37°C for 16-18 h. The bacterial suspension without compounds was used as a negative control. The lowest concentration that inhibited visible bacterial growth was considered as the value of MIC.

RAW264.7 = assay: Inflammatory factors inhibition; format: cell-based; settings: LPS-treated RAW264.7, 16 μg/mL, 12 h
Experimental: Inflammatory factors inhibition by compounds. Cell line of RAW264.7 was cultured in DMEM medium with 10% FBS. After incubation at 37 ℃ 5% CO2 to log phase, the attached cells were washed with 1× PBS and added with 1 μg/mL of LPS. After incubation at 37 ℃ 5% CO2 for 30 min, 16 μg/mL of C218-0546 or STK848198 was added to each well. The cells were further cultured for 12h, and the cell precipitate was collected for qRT-PCR while the supernatant was collected for ELISA.
For gene expression determination. One milliliter of Trizol was added to lysis the cells. Then, the suspension was incubated with 200 μL chloroform for 3 min. After centrifugation at 12000 rpm 4℃ for 15 min, the aqueous phase was removed to RNase-free tubes, and added with equal volume of isopropanol. After centrifugation at 12000 rpm 4℃, the RNA precipitation was collected and wash with 75% ethanol. […] Absorbance at 260nm and 280 nm was detected to determine the RNA concentration and purity. cDNA was synthesized with HiFiScript cDNA Synthesis Kit (CoWin Biosciences, Beijing, China) according to the manufacture’s specification, and UltraSYBR Mixture (2×, CoWin Biosciences, Beijing, China) was used for qPCR determination.
ELISA kit (Proteintech, Wuhan, China) was used for cytokines production quantification. […] Then, 100 μL substrate was added to each well and the absorbance at 450 nm was determined.

Cc1nc2c(-c3ccc(Cl)cc3)cnn2c(O)c1Cc1ccccc1 [STK848198]
CFU(x±SD) (TA 100; TA 100, +S9, 25 μg/well): 8 ±2 CFU
Fold Change (TA 100; TA 100, +S9, 25 μg/well): 0.2
CFU(x±SD) (TA 100; TA 100, +S9, 50 μg/well): 7 ±1 CFU
Fold Change (TA 100; TA 100, +S9, 50 μg/well): 0.2
CFU(x±SD) (TA 100; TA 100, +S9, 100 μg/well): 9 ±3 CFU
Fold Change (TA 100; TA 100, +S9, 100 μg/well): 0.3
CFU(x±SD) (TA 100; TA 100, +S9, 200 μg/well): 8±3 CFU
Fold Change (TA 100; TA 100, +S9, 200 μg/well): 0.2
CFU(x±SD) (TA 100; TA 100, +S9, 400 μg/well): 8 ±2 CFU
Fold Change (TA 100; TA 100, +S9, 400 μg/well): 0.2
CFU(x±SD) (TA 100; TA 100, -S9, 25 μg/well): 5±2 CFU
Fold Change (TA 100; TA 100, -S9, 25 μg/well): 0.2
CFU(x±SD) (TA 100; TA 100, -S9, 50 μg/well): 6±2 CFU
Fold Change (TA 100; TA 100, -S9, 50 μg/well): 0.2
CFU(x±SD) (TA 100; TA 100, -S9, 100 μg/well): 5±2 CFU
Fold Change (TA 100; TA 100, -S9, 100 μg/well): 0.1
CFU(x±SD) (TA 100; TA 100, -S9, 200 μg/well): 9±3 CFU
Fold Change (TA 100; TA 100, -S9, 200 μg/well): 0.3
CFU(x±SD) (TA 100; TA 100, -S9, 400 μg/well): 4±2 CFU
Fold Change (TA 100; TA 100, -S9, 400 μg/well): 0.1
CFU(x±SD) (TA 97a; +S9, 25 μg/well): 6±5 CFU
Fold Change (TA 97a; +S9, 25 μg/well): 0.3
CFU(x±SD) (TA 97a; +S9, 50 μg/well): 6±2 CFU
Fold Change (TA 97a; +S9, 50 μg/well): 0.2
CFU(x±SD) (TA 97a; +S9, 100 μg/well): 4±4 CFU
Fold Change (TA 97a; +S9, 100 μg/well): 0.2
CFU(x±SD) (TA 97a; +S9, 200 μg/well): 4±1 CFU
Fold Change (TA 97a; +S9, 200 μg/well): 0.2
CFU(x±SD) (TA 97a; +S9, 400 μg/well): 5±2 CFU
Fold Change (TA 97a; +S9, 400 μg/well): 0.2
CFU(x±SD) (TA 97a; -S9, 25 μg/well): 14±2 CFU
Fold Change (TA 97a; -S9, 25 μg/well): 0.6
CFU(x±SD) (TA 97a; -S9, 50 μg/well): 11±1 CFU
Fold Change (TA 97a; -S9, 50 μg/well): 0.4
CFU(x±SD) (TA 97a; -S9, 100 μg/well): 8±2 CFU
Fold Change (TA 97a; -S9, 100 μg/well): 0.3
CFU(x±SD) (TA 97a; -S9, 200 μg/well): 10±4 CFU
Fold Change (TA 97a; -S9, 200 μg/well): 0.4
CFU(x±SD) (TA 97a; -S9, 400 μg/well): 4±3 CFU
Fold Change (TA 97a; -S9, 400 μg/well): 0.2
CFU(x±SD) (TA 1535; TA 1535, +S9, 25 μg/well): 2±1 CFU
Fold Change (TA 1535; TA 1535, +S9, 25 μg/well): 0.9
CFU(x±SD) (TA 1535; TA 1535, +S9, 50 μg/well): 2±1 CFU
Fold Change (TA 1535; TA 1535, +S9, 50 μg/well): 0.9
CFU(x±SD) (TA 1535; TA 1535, +S9, 100 μg/well): 2±1 CFU
Fold Change (TA 1535; TA 1535, +S9, 100 μg/well): 1
CFU(x±SD) (TA 1535; TA 1535, +S9, 200 μg/well): 2±1 CFU
Fold Change (TA 1535; TA 1535, +S9, 200 μg/well): 0.7
CFU(x±SD) (TA 1535; TA 1535, +S9, 400 μg/well): 2±1 CFU
Fold Change (TA 1535; TA 1535, +S9, 400 μg/well): 0.7
CFU(x±SD) (TA 1535; TA 1535, -S9, 25 μg/well): 2±1 CFU
Fold Change (TA 1535; TA 1535, -S9, 25 μg/well): 0.9
CFU(x±SD) (TA 1535; TA 1535, -S9, 50 μg/well): 2±2 CFU
Fold Change (TA 1535; TA 1535, -S9, 50 μg/well): 1
CFU(x±SD) (TA 1535; TA 1535, -S9, 100 μg/well): 2±2 CFU
Fold Change (TA 1535; TA 1535, -S9, 100 μg/well): 1
CFU(x±SD) (TA 1535; TA 1535, -S9, 200 μg/well): 1±1 CFU
Fold Change (TA 1535; TA 1535, -S9, 200 μg/well): 0.6
CFU(x±SD) (TA 1535; TA 1535, -S9, 400 μg/well): 1±1 CFU
Fold Change (TA 1535; TA 1535, -S9, 400 μg/well): 0.6
CFU(x±SD) (TA 98; TA 98, +S9, 25 μg/well): 6 ±1 CFU
Fold Change (TA 98; TA 98, +S9, 25 μg/well): 0.9
CFU(x±SD) (TA 98; TA 98, +S9, 50 μg/well): 5 ±1 CFU
Fold Change (TA 98; TA 98, +S9, 50 μg/well): 0.8
CFU(x±SD) (TA 98; TA 98, +S9, 100 μg/well): 4 ±1 CFU
Fold Change (TA 98; TA 98, +S9, 100 μg/well): 0.7
CFU(x±SD) (TA 98; TA 98, +S9, 200 μg/well): 5 ±1 CFU
Fold Change (TA 98; TA 98, +S9, 200 μg/well): 0.7
CFU(x±SD) (TA 98; TA 98, +S9, 400 μg/well): 4 ±0 CFU
Fold Change (TA 98; TA 98, +S9, 400 μg/well): 0.6
CFU(x±SD) (TA 98; TA 98, -S9, 25 μg/well): 5±3 CFU
Fold Change (TA 98; TA 98, -S9, 25 μg/well): 0.8
CFU(x±SD) (TA 98; TA 98, -S9, 50 μg/well): 5±1 CFU
Fold Change (TA 98; TA 98, -S9, 50 μg/well): 0.8
CFU(x±SD) (TA 98; TA 98, -S9, 100 μg/well): 3±2 CFU
Fold Change (TA 98; TA 98, -S9, 100 μg/well): 0.5
CFU(x±SD) (TA 98; TA 98, -S9, 200 μg/well): 1±2 CFU
Fold Change (TA 98; TA 98, -S9, 200 μg/well): 0.2
CFU(x±SD) (TA 98; TA 98, -S9, 400 μg/well): 0±1 CFU
Fold Change (TA 98; TA 98, -S9, 400 μg/well): 0.1
MIC (S. aureus): 2 µg/mL (≈ 5.72 µM)
inflammatory cytokines production (IL-1β, IL-6, TNFα decreased, IL-10 enhanced) (RAW264.7): inhibit inflammatory progress
